From patent US20230047788A1, “COMPOSITIONS COMPRISING 5-CHOLESTEN-3, 25-DIOL, 3-SULFATE (25HC3S) OR PHARMACEUTICALLY ACCEPTABLE SALT THEREOF AND AT LEAST ONE CYCLIC OLIGOSACCHARIDE” (Virginia Commonwealth University, priority 2016, published 2023)

Test: Effect of phosphate and borate buffers on chemical stability (% remaining, impurity profile), osmolality, pH and appearance of 25HC3S 30 mg/mL in 250 mg/mL HPBCD at 80°C and 60°C
Assay type: physicochemical
Description: A total of six 25HC3S formulations at 30 mg/mL in 250 mg/mL of 2-hydroxypropyl beta cyclodextrin (HPBCD) containing 10, 20, 50 and 100 mM phosphate buffers at pH 7.5 to 8.1 and 10 and 50 mM borate buffers at pH 9.4 were prepared for the stability study. The chemical stability (measured as % remaining of 25HC3S) and physical stability (osmolality, pH and appearance) of the formulations were monitored under accelerated conditions for up to 7 days at 80° C. and up to 29 days at 60° C.
Two stock solutions of phosphate buffer at 100 and 200 mM at pH 7.4 and 7.3, respectively and one borate buffer at 100 mM at pH 9.3 were prepared (Tables 22A and 22B) and used for 250 mg/mL HPBCD vehicles preparation (Table 23).
Approximately 1200 mg each of 25HC3S was weighed into 40 mL volumetric flasks and diluted to volume with the six HPBCD vehicles containing 10-100 mM phosphate buffers or 10 and 50 mM borate buffers, respectively (Table 24). The final concentration of 25HC3S was 30 mg/mL (wt/volume, without adjusting for API purity). Aliquots of 2 mL of each formulation were filled into 2 mL glass vials, stoppered and sealed for stability sample set-up at 60° C. and 80° C. to study the effect of phosphate buffer (pH 7.5-8.1) and borate buffer (pH 9.4) at various buffer concentrations on the stability of the HPBCD formulations (Table 26).
A 0.5 mL of sample solution was transferred to a 25 mL volumetric flask and QS'ed with methanol/water=95/5 for 25HC3S concentration determination by HPLC. The % remaining of 25HC3S was calculated as follows: […]

[1] = 60° C., day 0, Phosphate 100 mM
[2] = 60° C., day 29, Phosphate 10 mM
[3] = 60° C., day 29, Phosphate 20 mM
[4] = 60° C., day 29, Phosphate 50 mM
[5] = 60° C., day 29, Phosphate 100 mM

C[C@H](CCCC(C)(C)O)[C@H]1CC[C@H]2[C@@H]3CC=C4C[C@@H](OS(=O)(=O)[O-])CC[C@]4(C)[C@H]3CC[C@]12C.[Na+] [25HC3S, 5-cholesten-3, 25-diol, 3-sulfate]
pH (60° C., day 0, Borate 50 mM): 9.40 | 25HC3S (60° C., day 0, Phosphate 10 mM): 28.45 mg/mL | % Peak Area 25-Hydroxy Cholesterol at RRT = 3.67 (60° C., day 0, Phosphate 10 mM): 0.0 % Peak Area | % Peak Area 25HC3S (60° C., day 0, Phosphate 10 mM): 99.8 % Peak Area | % Peak Area Major Thermal Degradant at RRT = 2.64 (60° C., day 0, Phosphate 10 mM): 0.3 % Peak Area | % Remaining of 25HC3S (60° C., day 0, Phosphate 10 mM): 100.0% | Osmolality (60° C., day 0, Phosphate 10 mM): 273 mmol/kg | pH (60° C., day 0, Phosphate 10 mM): 8.09 | 25HC3S (60° C., day 0, Phosphate 20 mM): 28.63 mg/mL | % Peak Area 25-Hydroxy Cholesterol at RRT = 3.67 (60° C., day 0, Phosphate 20 mM): 0.0 % Peak Area | % Peak Area 25HC3S (60° C., day 0, Phosphate 20 mM): 99.7 % Peak Area | % Peak Area Major Thermal Degradant at RRT = 2.64 (60° C., day 0, Phosphate 20 mM): 0.3 % Peak Area | % Remaining of 25HC3S (60° C., day 0, Phosphate 20 mM): 100.0% | Osmolality (60° C., day 0, Phosphate 20 mM): 311 mmol/kg | pH (60° C., day 0, Phosphate 20 mM): 7.81 | 25HC3S (60° C., day 0, Phosphate 50 mM): 28.50 mg/mL | % Peak Area 25-Hydroxy Cholesterol at RRT = 3.67 (60° C., day 0, Phosphate 50 mM): 0.0 % Peak Area | % Peak Area 25HC3S (60° C., day 0, Phosphate 50 mM): 99.7 % Peak Area | % Peak Area Major Thermal Degradant at RRT = 2.64 (60° C., day 0, Phosphate 50 mM): 0.3 % Peak Area | % Remaining of 25HC3S (60° C., day 0, Phosphate 50 mM): 100.0% | Osmolality (60° C., day 0, Phosphate 50 mM): 415 mmol/kg | pH (60° C., day 0, Phosphate 50 mM): 7.63 | 25HC3S [1]: 28.58 mg/mL | % Peak Area 25-Hydroxy Cholesterol at RRT = 3.67 [1]: 0.0 % Peak Area | % Peak Area 25HC3S [1]: 99.8 % Peak Area | % Peak Area Major Thermal Degradant at RRT = 2.64 [1]: 0.3 % Peak Area | % Remaining of 25HC3S [1]: 100.0% | Osmolality [1]: 573 mmol/kg | pH [1]: 7.53 | 25HC3S (60° C., day 29, Borate 10 mM): 26.55 mg/mL | % Peak Area 25-Hydroxy Cholesterol at RRT = 3.67 (60° C., day 29, Borate 10 mM): 1.3 % Peak Area | % Peak Area 25HC3S (60° C., day 29, Borate 10 mM): 98.5 % Peak Area | % Peak Area Major Thermal Degradant at RRT = 2.64 (60° C., day 29, Borate 10 mM): 0.3 % Peak Area | % Remaining of 25HC3S (60° C., day 29, Borate 10 mM): 92.9% | Osmolality (60° C., day 29, Borate 10 mM): 326 mmol/kg | pH (60° C., day 29, Borate 10 mM): 8.90 | 25HC3S (60° C., day 29, Borate 50 mM): 27.03 mg/mL | % Peak Area 25-Hydroxy Cholesterol at RRT = 3.67 (60° C., day 29, Borate 50 mM): 1.3 % Peak Area | % Peak Area 25HC3S (60° C., day 29, Borate 50 mM): 98.5 % Peak Area | % Peak Area Major Thermal Degradant at RRT = 2.64 (60° C., day 29, Borate 50 mM): 0.3 % Peak Area | % Remaining of 25HC3S (60° C., day 29, Borate 50 mM): 94.8% | Osmolality (60° C., day 29, Borate 50 mM): 541 mmol/kg | pH (60° C., day 29, Borate 50 mM): 9.19 | 25HC3S [2]: 26.65 mg/mL | % Peak Area 25-Hydroxy Cholesterol at RRT = 3.67 [2]: 1.4 % Peak Area | % Peak Area 25HC3S [2]: 98.3 % Peak Area | % Peak Area Major Thermal Degradant at RRT = 2.64 [2]: 0.3 % Peak Area | % Remaining of 25HC3S [2]: 93.7% | Osmolality [2]: 281 mmol/kg | pH [2]: 7.04 | 25HC3S [3]: 26.78 mg/mL | % Peak Area 25-Hydroxy Cholesterol at RRT = 3.67 [3]: 1.4 % Peak Area | % Peak Area 25HC3S [3]: 98.3 % Peak Area | % Peak Area Major Thermal Degradant at RRT = 2.64 [3]: 0.3 % Peak Area | % Remaining of 25HC3S [3]: 93.5% | Osmolality [3]: 322 mmol/kg | pH [3]: 7.17 | 25HC3S [4]: 26.63 mg/mL | % Peak Area 25-Hydroxy Cholesterol at RRT = 3.67 [4]: 1.4 % Peak Area | % Peak Area 25HC3S [4]: 98.3 % Peak Area | % Peak Area Major Thermal Degradant at RRT = 2.64 [4]: 0.3 % Peak Area | % Remaining of 25HC3S [4]: 93.4% | Osmolality [4]: 430 mmol/kg | pH [4]: 7.28 | 25HC3S [5]: 26.63 mg/mL | % Peak Area 25-Hydroxy Cholesterol at RRT = 3.67 [5]: 1.4 % Peak Area | % Peak Area 25HC3S [5]: 98.4 % Peak Area | % Peak Area Major Thermal Degradant at RRT = 2.64 [5]: 0.3 % Peak Area | % Remaining of 25HC3S [5]: 93.2% | Osmolality [5]: 592 mmol/kg | pH [5]: 7.28 | Appearance (60° C., days 0 and 29, Borate 10 and 50 mM, merged cell wrapped over r16-r18: Clear colorless solution): Clear | Appearance (60° C., days 0 and 29, Phosphate 10, 20, 50 and 100 mM, merged cell wrapped over r8-r10: Clear colorless solution): Clear | % Peak Area 25-Hydroxy Cholesterol at RRT = 3.67 (80° C., day 0, Borate 10 mM): 0.0 % Peak Area | % Peak Area 25HC3S (80° C., day 0, Borate 10 mM): 99.7 % Peak Area | % Peak Area Major Thermal Degradant at RRT = 2.64 (80° C., day 0, Borate 10 mM): 0.3 % Peak Area | % Peak Area 25-Hydroxy Cholesterol at RRT = 3.67 (80° C., day 0, Borate 50 mM): 0.0 % Peak Area | % Peak Area 25HC3S (80° C., day 0, Borate 50 mM): 99.9 % Peak Area | % Peak Area Major Thermal Degradant at RRT = 2.64 (80° C., day 0, Borate 50 mM): 0.2 % Peak Area | % Peak Area 25-Hydroxy Cholesterol at RRT = 3.67 (80° C., day 0, Phosphate 10 mM): 0.0 % Peak Area | % Peak Area 25HC3S (80° C., day 0, Phosphate 10 mM): 99.8 % Peak Area
